Structures are written as SMILES. Like-named read-outs stand apart in the source and are kept apart here.

This note sets out measurements from patent US20200392116A1, “SUBSTITUTED HETEROCYCLES AS c-MYC TARGETING AGENTS” (NORTHWESTERN UNIVERSITY, priority 2019, published 2020).

The nature of data set [1]: Potency code of Table 2 (assay not stated).
Data set [2] can be described thus: In vitro metabolism with mouse liver microsomes. The data set is classed as in vitro ADME. Particulars: % remaining of compound after 60 min treatment with mouse liver microsomes. Here is the method: In vitro metabolism of NUCC-176242 and NUCC-176248 were tested using mouse liver microsomes and a mouse S9 fraction. (See FIG. 9).
Background: Microsomes from liver hold many membrane-bound enzymes, among them those of drug oxidation.

Data set [3] deals with MYC transcriptional activity (c-Myc E-box-luciferase reporter, MycCap cells). As to the kind of experiment: MYC E-box luciferase reporter assay. The class given is cell-based. The conditions noted are these: Mus musculus, Myc-CaP. As to the method:
To test the compounds, we evaluated the in silico hits in a MYC E-Box luciferase reporter assay to measure the effects of these compounds (referred to as Min-1 to Min-32) on MYC transcriptional activity. […] (See FIG. 2).
MycCap cells stably expressing luciferase with CMV promoter (MycCap-luc) or c-Myc E-box-luciferase reporter (MycCap Ebox-luc) were plated at 10000 cells per well in 96 well white-wall plate. Serial dilutions of 361 were treated next day. At 4 hours of treatment, luminescence signal was determined immediately after adding 150 μg/ml of Luciferin to the well. (See FIG. 12).
(In general: In a reporter assay the amount or activity of a reporter protein is the signal.)

Data set [4] concerns CMV reporter. As to the kind of experiment: CMV reporter assay (control reporter beside the Ebox reporter). The class given is cell-based.
[5] abbreviates: given as numeric bound, read-out: Ebox reporter: IC50.
The mark [6] stands for this setting: class symbols, read-out: Ebox reporter: IC50.
Setting [7] is: class symbols, read-out: Eboc reporter IC50.

Turning to `Oc1cc(OCc2ccc(Cl)cc2)ccc1-c1n[nH]c(C(F)(F)F)c1Oc1ccccc1Cl` [NUCC-0196342], the Potency code result in data set [1] is on record as “++++ (<10 ++++)”. In data set [2], the “MLM % at 60 min” value is 87.4%.
On the same counts, the results for `Oc1c(-c2cc(C(F)(F)F)[nH]n2)ccc(OCc2ccc(Cl)cc2)c1-c1ccccc1Cl` [NUCC-0196363] are “++++ (<10 ++++)” and 88.6%.
On the same counts, the results for `COc1cccc(-c2c(-c3ccc(OCc4ccc(Cl)cc4)cc3O)n[nH]c2C(F)(F)F)c1` [NUCC-0198309] are “++++ (<10 ++++)” and 74%.
Regarding `Cn1nc(C(F)(F)F)cc1-c1ccc(OCc2ccc(Cl)cc2)c(-c2cccc(C#N)c2)c1O` [NUCC-0198399], the Potency code entry in data set [1] is listed as “++++ (<10 ++++)”. Besides, the “MLM % at 60 min” value in data set [2] came out at 80.3%.
On the same counts, the results for `CCc1c(OCc2ccc(Cl)cc2)ccc(-c2cc(C(F)(F)F)n[nH]2)c1O` [NUCC-0200739] are “+ (>40 +)” and 46.4%.
On the same counts, the results for `CCCCCCOc1ccc(-c2cc(C(F)(F)F)n[nH]2)c(O)c1-c1cc(C(F)(F)F)cc(C(F)(F)F)c1` [NUCC-0201196] are “+++ (10-30 +++)” and 66.6%.
On the same counts, the results for `CCCCCCOc1ccc(-c2cc(C(F)(F)F)nn2C)c(O)c1-c1cncc(C#N)c1` [NUCC-0201207] are “+++ (10-30 +++)” and 52.7%.
Regarding `CCCCOc1ccc(-c2cc(C(F)(F)F)n(C)n2)c(O)c1-c1cncc(C(F)(F)F)c1` [NUCC-0201209], the Potency code result in data set [1] is given as “+ (>40 +)”. In data set [2], the “MLM % at 60 min” value was 10.3%.
`Oc1c(-c2cc(C(F)(F)F)[nH]n2)ccc(Oc2ccc(Cl)cc2)c1-c1cc(C(F)(F)F)cc(C(F)(F)F)c1` [NUCC-0201223]: in data set [1], the Potency code entry is given as “++++ (<10 ++++)”. Besides, the “MLM % at 60 min” value in data set [2] is on record as 75.8%.
Consider `Cn1nc(-c2ccc(N(Cc3ccc(Cl)cc3)C(=O)c3ccc(F)cc3)cc2O)cc1C(F)(F)F` [NUCC-0202701], for which the IC50 in data set [3] (setting [5]) and in data set [4] was above 50 µM each time.
As to `Cn1nc(-c2ccc(N(Cc3ccc(Cl)cc3)C(=O)c3ccccc3Cl)cc2O)cc1C(F)(F)F` [NUCC-0202702], the 50% inhibitory concentration (IC50) in data set [3] (setting [5]) and in data set [4] was above 50 µM in each case.
For `Cn1nc(C(F)(F)F)cc1-c1ccc(N(Cc2ccc(Cl)cc2)C(=O)c2ccc(Cl)cc2)cc1O` [NUCC-0202703], the figures for the IC50 in data set [3] (setting [6]) and in data set [4] were below 5 µM and above 50 µM, respectively.
On the same counts, the results for `Cn1nc(C(F)(F)F)cc1-c1ccc(N(Cc2ccc(Cl)cc2)C(=O)c2cccc(Cl)c2)cc1O` [NUCC-0202704] are below 5 µM and above 50 µM.
For `Cn1nc(C(F)(F)F)cc1-c1ccc(N(Cc2ccc(Cl)cc2)C(=O)c2cccc(S(C)(=O)=O)c2)cc1O` [NUCC-0202705], in that order: below 5 µM and above 50 µM.
For `Cn1nc(C(F)(F)F)cc1-c1ccc(N(Cc2ccc(Cl)cc2)C(=O)c2ccc(F)c(F)c2)cc1O` [NUCC-0202706], in that order: below 5 µM and above 50 µM.
Regarding `Cn1nc(-c2ccc(N(Cc3ccc(Cl)cc3)C(=O)c3ccc(F)c(F)c3)cc2O)cc1C(F)(F)F` [NUCC-0202707], the IC50 in data set [3] (setting [5]) and in data set [4] was above 50 µM each time.
Consider `Cn1nc(-c2ccc(N(Cc3ccc(Cl)cc3)C(=O)c3ccc(C(F)(F)F)cc3Cl)cc2O)cc1C(F)(F)F` [NUCC-0202708], for which the IC50 in data set [3] (setting [5]) and in data set [4] was above 50 µM in each case.
For the compound `Cn1nc(C(F)(F)F)cc1-c1ccc(N(Cc2ccc(Cl)cc2)C(=O)c2ccc(Cl)cc2C(F)(F)F)cc1O` [NUCC-0202709], the IC50 (usually the concentration that gives 50% inhibition) in data set [3] (setting [6]) is 5 to 10 µM; in data set [4], above 50 µM.
On to `Cn1nc(-c2ccc(N(Cc3ccc(Cl)cc3)C(=O)c3ccc(Cl)cc3C(F)(F)F)cc2O)cc1C(F)(F)F` [NUCC-0202710], for which the IC50 in data set [3] (setting [5]) and in data set [4] was above 50 µM throughout.
For `Cn1nc(C(F)(F)F)cc1-c1ccc(N(Cc2ccc(Cl)cc2)C(=O)c2ccc(F)cc2)cc1O` [NUCC-0202711], the IC50 is 5 to 10 µM in data set [3] (setting [6]) and above 50 µM in data set [4].
On the same counts, the results for `Cn1nc(C(F)(F)F)cc1-c1ccc(N(Cc2ccc(Cl)cc2)C(=O)c2ccccc2Cl)cc1O` [NUCC-0202712] are 10 to 50 µM and above 50 µM.
Take `Cn1nc(C(F)(F)F)cc1-c1ccc(N(Cc2ccc(Cl)cc2)C(=O)c2ccc(C(F)(F)F)cc2)cc1O` [NUCC-0202713]: the values for the IC50 in data set [3] (setting [6]) and in data set [4] were 5 to 10 µM and above 50 µM, respectively.
Take `Cn1nc(-c2ccc(N(Cc3ccc(Cl)cc3)C(=O)c3ccc(C(F)(F)F)cc3)cc2O)cc1C(F)(F)F` [NUCC-0202714]: the IC50 in data set [3] (setting [5]) and in data set [4] was above 50 µM in each case.
As for `Cn1nc(C(F)(F)F)cc1-c1ccc(N(Cc2ccc(Cl)cc2)C(=O)c2ccccc2F)cc1O` [NUCC-0202715], the IC50 in data set [3] (setting [6]) was 5 to 10 µM; in data set [4] it was above 50 µM.
On to `Cn1nc(-c2ccc(N(Cc3ccc(Cl)cc3)C(=O)c3ccccc3F)cc2O)cc1C(F)(F)F` [NUCC-0202716], for which the IC50 in data set [3] (setting [5]) and in data set [4] was above 50 µM throughout.
As to `COc1ccc(C(=O)N(Cc2ccc(Cl)cc2)c2ccc(-c3cc(C(F)(F)F)nn3C)c(O)c2)cc1` [NUCC-0202717], the IC50 in data set [3] (setting [6]) was 5 to 10 µM; in data set [4], above 50 µM.
Consider `COc1ccc(C(=O)N(Cc2ccc(Cl)cc2)c2ccc(-c3cc(C(F)(F)F)n(C)n3)c(O)c2)cc1` [NUCC-0202718], for which the IC50 in data set [3] (setting [5]) and in data set [4] was above 50 µM in each case.
Take `Cn1nc(-c2ccc(N(Cc3ccc(Cl)cc3)C(=O)c3ccccc3C(F)(F)F)cc2O)cc1C(F)(F)F` [NUCC-0202719]: the IC50 in data set [3] (setting [5]) and in data set [4] was above 50 µM each time.
For the compound `Cn1nc(C(F)(F)F)cc1-c1ccc(N(Cc2ccc(Cl)cc2)C(=O)c2ccc(C(F)(F)F)cc2Cl)cc1O` [NUCC-0202720], the IC50 was 5 to 10 µM in data set [3] (setting [6]) and above 50 µM in data set [4].
On to `Cn1nc(-c2ccc(N(Cc3ccc(Cl)cc3)C(=O)c3cccc(S(C)(=O)=O)c3)cc2O)cc1C(F)(F)F` [NUCC-0202721], for which the half-inhibitory concentration (IC50) in data set [3] (setting [5]) and in data set [4] was above 50 µM in each case.
With `Cn1nc(-c2ccc(N(Cc3ccc(Cl)cc3)C(=O)c3cncc(C#N)c3)cc2O)cc1C(F)(F)F` [NUCC-0202722], the concentration for half-maximal inhibition (IC50) in data set [3] (setting [5]) and in data set [4] was above 50 µM each time.
Regarding `Cn1nc(C(F)(F)F)cc1-c1ccc(N(Cc2ccc(Cl)cc2)C(=O)c2ccccc2C(F)(F)F)cc1O` [NUCC-0202723], the figures for the IC50 in data set [3] (setting [6]) and in data set [4] were 5 to 10 µM and above 50 µM, respectively.
Regarding `Cn1nc(C(F)(F)F)cc1-c1ccc(N(Cc2ccc(Cl)cc2)C(=O)c2cncc(C#N)c2)cc1O` [NUCC-0202724], the results for the IC50 in data set [3] (setting [6]) and in data set [4] were 5 to 10 µM and above 50 µM, respectively.
On the same counts, the results for `Cn1nc(-c2ccc(N(Cc3ccc(Cl)cc3)C(=O)c3ccc4nccn4c3)cc2O)cc1C(F)(F)F` [NUCC-0202725] are 10 to 50 µM and above 50 µM.
For `Cn1nc(C(F)(F)F)cc1-c1ccc(CNc2ccc(Cl)c(C(F)(F)F)c2)cc1O` [NUCC-0202980], the IC50 in data set [3] (setting [7]) and in data set [4] (class symbols) was 10 to 50 µM throughout.
On to `Cn1nc(-c2ccc(CNc3ccc(Cl)c(C(F)(F)F)c3)cc2O)cc1C(F)(F)F` [NUCC-0202981], for which the 50% inhibitory concentration (IC50) was 10 to 50 µM in data set [3] (setting [7]) and above 50 µM in data set [4] (class symbols).
As to `Cn1nc(C(F)(F)F)cc1-c1ccc(C(=O)Nc2ccc(Cl)c(C(F)(F)F)c2)cc1O` [NUCC-0202984], the IC50 was below 5 µM in data set [3] (setting [7]) and 10 to 50 µM in data set [4] (class symbols).
For the compound `Cn1nc(-c2ccc(C(=O)Nc3ccc(Cl)c(C(F)(F)F)c3)cc2O)cc1C(F)(F)F` [NUCC-0202985], the IC50 in data set [3] (setting [7]) and in data set [4] (class symbols) was above 50 µM throughout.
For `Oc1c(-c2cc(C(F)(F)F)n[nH]2)c(Cl)cc(OCc2ccc(Cl)cc2)c1-c1ccc(Cl)c(C(F)(F)F)c1` [NUCC-0202986], the IC50 in data set [3] (setting [7]) was below 5 µM; in data set [4] (class symbols), 10 to 50 µM.
On the same counts, the results for `Cn1nc(C(F)(F)F)cc1-c1c(Cl)cc(OCc2ccc(Cl)cc2)c(-c2ccc(Cl)c(C(F)(F)F)c2)c1O` [NUCC-0202987] are below 5 µM and above 50 µM.
On the same counts, the results for `Cn1nc(-c2c(Cl)cc(OCc3ccc(Cl)cc3)c(-c3ccc(Cl)c(C(F)(F)F)c3)c2O)cc1C(F)(F)F` [NUCC-0202988] are above 50 µM and above 50 µM.
As to `CN(C(=O)c1ccc(-c2cc(C(F)(F)F)n[nH]2)c(O)c1)c1ccc(Cl)c(C(F)(F)F)c1` [NUCC-0202989], the IC50 in data set [3] (setting [7]) and in data set [4] (class symbols) was 10 to 50 µM in each case.
Regarding `CN(C(=O)c1ccc(-c2cc(C(F)(F)F)nn2C)c(O)c1)c1ccc(Cl)c(C(F)(F)F)c1` [NUCC-0202990], the IC50 was 10 to 50 µM in data set [3] (setting [7]) and above 50 µM in data set [4] (class symbols).
For `CN(C(=O)c1ccc(-c2cc(C(F)(F)F)n(C)n2)c(O)c1)c1ccc(Cl)c(C(F)(F)F)c1` [NUCC-0202991], in that order: 10 to 50 µM and above 50 µM.
On to `O=C(Nc1ccc(Cl)c(C(F)(F)F)c1)c1ccc(-c2cc(C(F)(F)F)n[nH]2)c(O)c1` [NUCC-0202992], for which the figures for the IC50 in data set [3] (setting [7]) and in data set [4] (class symbols) were 5 to 10 µM and 10 to 50 µM, respectively.
For `Oc1cc(CNc2ccc(Cl)c(C(F)(F)F)c2)ccc1-c1cc(C(F)(F)F)n[nH]1` [NUCC-0202993], in that order: 5 to 10 µM and 10 to 50 µM.
